Source: patent US11517630B2, “Methods and compositions for regulating gene expression” (Children's Medical Center Corporation, priority 2005, dated 2022)

Legend:
[1] = tested on: mutant (TGA-containing) Apo CII-luc fusion reporter in FG293 cells; experiment: In vitro luciferase assay: suppression of translational termination in FG293 cells transduced with mutant Apo CII-luc lentiviral vector; assay type: cell-based, human; conditions: for fold of induction: 5 μg/ml; for % of wild-type luc activity: 200 μg/ml; for ability to induce luciferase expression (suppression of translation termination codons): 0 to 1000 μg/ml, mutant luc fusion
Method: FG 293 cells were infected with viral supernatants at a multiplicity of infection (MOI) of 10. After 72 hours, cells were then split into six well plates, exposed to various concentrations of G1418 for 48 hours, and lysed. Protein extracts were then assayed for luciferase expression using the Promega Luciferase Assay System.
(§1) To facilitate quantitative measurement of both spontaneous read-through of specific termination codon configurations and the ability of specific antibiotics to suppress translational termination, a luciferase (luc) reporter gene was generated in which the first five codons of either WT mutant MIA-containing) Apo CII sequences were fused to luc coding sequences, and the resulting sequences were introduced into a standard lentiviral vector (FIG. 1B). High-titer virus generated from the vectors was used to infect human FG293 cells at a multiplicity of infection (MOI) of 10, so that virtually 100% of the cells would be stably transduced. Cells were then split into six well plates, exposed to varying concentrations of the aminoglycoside (G418) for 48 hours, and then lysed and assayed for luc expression. […] In contrast, cells transduced by vectors encoding the mutant Apo CII-luc expressed only low levels of luc in the absence of G418 (approximately 1.2% the activity of the wild type), but could be induced to strongly express luc by the addition of the antibiotic (FIG. 2B). […] The efficiency of suppression of translational termination was extremely high (over 70% of the level of wild-type reporter expression observed in the absence of the nonsense codon).
as §1, with “(TGA-containing)” for “MIA-containing)”
One of the expected characteristics of the gene regulation system described here is the ability to rapidly achieve induction of transgene expression, since (as indicated above) transcription is constitutive and therefore induction of gene expression should depend only upon the restoration of fall translation of the transgene coding sequences. To address this issue, we employed the transduced cells described above, and measured the level of reporter activity after G418 administration (200 μg/ml) as a function of time.
Compounds were tested in vitro using stable cell lines generated via the infection of FG293 cells with lentiviral vectors carrying either WT or mutant Apo CII luc sequences. The aminoglycosides were tested over a concentration range from 0 to 1000 μg/ml.

[2] = tested on: mutant Apo CII-luc in murine lung tissue; experiment: In vivo luc induction in murine lung after intratracheal delivery of lentiviral vector, bioluminescent imaging; conditions: 1.5 mg daily, 4 days, average of five mice
Method: For intratracheal infections, nude mice were anaesthesized and then 100 μl of concentrated virus was delivered upon normal inhalation via a blunt-ended 16-gauge needle inserted in such a way to depress the tongue.
(§2) Prior to imaging, mice were anaesthesized and injected with 150 μl luciferin (30 mg/ml) (Xenagen, Alameda, Calif.). A series of bioluminescent images were then taken for up to 30 minutes using the Xenogen IVIS imager. Photon output was quantified at the plateau of the time-course using the Living Image software. Induction in fold was calculated based on the photon output in the animals before and after drug treatment.
To further establish the general applicability of the gene […] system, we next asked whether gene regulation at the level of translation could be readily accomplished in the in vivo setting. In a first animal model, intratracheal delivery (see Materials and Methods) of a lentiviral vector carrying WT or mutant Apo CII-luc sequences was utilized in order to assess the ability to regulate luc expression in murine lung tissue via aminoglycoside administration. Five days post transduction, prior to administration of aminoglycoside, mice were imaged for luc expression using the Xenogen IVIS non-invasive bioluminescent imager (29). […]

[3] = tested on: mutant Apo CII-luc in hematopoietic cells; experiment: In vivo luc induction in murine bone marrow transplantation model (transduced hematopoietic stem cells); parameters: species or system mice; conditions: 1.5 mg/day for 3.5 days, four mutant luc animals
Method: Purified HSC were obtained by isolating bone marrow SP cells using fluorescence activated cell sorting after Hoechst staining as previously described (10), with some modifications. Briefly, femurs and tibias from mice were homogenized, and the bone marrow cells were filtered through 70 μm nylon mesh and washed in PBS containing 2% FCS and 0.5% Sodium Azide. Cells were then resuspended in HBSS containing 2% FCS, 10 mM Hepes buffer and antibiotics (all from Gibco, Grand Island, N.Y.) and 8.8 μg/ml Hoechst 33342 (Molecular Probes, Eugene, Oreg.) at a cell concentration of 5×10^6/ml. Following incubation for 90 min at 37° C., cells were washed once and further purified by using a gradient of Ficoll-Paque™ Plus (Amersham Biosciences AB, Uppsala) to remove red blood cells. Purified marrow cells were then sorted using a MoFlo high speed cell sorter (DakoCytomation, Fort Collins, Col.). Except when specified, cells were kept on ice during the entire procedure. […]
as §2, with “A series of bioluminescent images were then taken for up to 30 minutes using the Xenogen IVIS imager.” left out, “treatment. […]” for “treatment.”

[4] = Acute toxicity at concentrations used to regulate gene expression in cell lines and animals
Text: Overall, the system described here represents a remarkably simple means of controlling the expression of genes in mammalian cells that should have immediate experimental applications. While the range of inducibility obtainable with the system (in some cases over 60 fold) is considerably more limited than that of gone regulation systems based on the control of transcription or RNA self-cleavage, the ability to fine-tune the basal and induced levels of gene expression via use of specific termination codons and adjacent sequences may mitigate this limitation in many experimental situations. […] Similarly, others have shown that G418 can be used at relatively non-toxic doses to suppress nonsense mutations in cell lines and in animal models of inherited disease (25, 35). […] The availability of such molecules for experimental studies in the future should further expand the utility of translation-based gene regulation strategies.

[5] = mice; cited from earlier work

CC(C)(C)c1ccc(OCC(=O)Nc2cccc(C(=O)O)c2)cc1 [3-[2-(4-tert-butyl-phenoxyl)-acetylamino]-benzoic acid]
fold of induction ([1]; FG293 cells): about 14%

CCC(C)(C)c1ccc(OCC(=O)Nc2cccc(C(=O)O)c2)cc1 [3-{2-[4-(1,1-dimethyl-propyl)-phenoxyl]acetylamino}-benzoic acid]
fold of induction ([1]; FG293 cells): about 24%

CN[C@@H]1[C@@H](O)[C@@H](O[C@@H]2[C@@H](O)[C@H](O[C@H]3O[C@H]([C@@H](C)O)[C@@H](O)[C@H](O)[C@H]3N)[C@@H](N)C[C@H]2N)OC[C@]1(C)O [G418]
% of wild-type luc activity ([1]; 1 hour post induction): 1.4% | % of wild-type luc activity ([1]; 6 hours post induction): 6.1% | % of wild-type luc activity ([1]; 12 hours post induction): 25.3% | % of wild-type luc activity ([1]; 24 hours post induction): 38.1% | % of wild-type luc activity ([1]; 48 hours post exposure): 51.3% | efficiency of suppression of translational termination, % of wild-type reporter expression ([1]; 300 μg/ml, 48 hours, FG293 cells): over 70% | increase in reporter (luc) expression relative to the uninduced state, maximum induction ([1]; 300 μg/ml, 48 hours, FG293 cells, mutant Apo CII-luc): approximately 60 fold | fold induction at 200 µg/mL ([1]; Homo sapiens, 48 h, read-out: fold induction of luc (maximal induction)): 60 | luciferase expression, % of level in WT luc mice [2]: 27% | induced level, % of expression in WT luc mice [3]: ~51% | fold induction at 1.5 mg ([3]; Mus musculus, Hematopoietic stem cell, 84 h, read-out: average fold induction of luc expression): 65 | acute toxicity at concentrations used [4]: not acutely toxic

NCC[C@H](O)C(=O)N[C@@H]1C[C@H](N)[C@@H](O[C@H]2O[C@H](CN)[C@@H](O)[C@H](O)[C@H]2O)[C@H](O)[C@H]1O[C@H]1O[C@H](CO)[C@@H](O)[C@H](N)[C@H]1O [amakacin]
ability to induce luciferase expression (suppression of translation termination codons) ([1]; 48 hours, FG293 cells): only weak induction

NC[C@@H]1O[C@H](O[C@H]2[C@@H](O)[C@H](O[C@@H]3[C@@H](O)[C@H](N)C[C@H](N)[C@H]3O[C@H]3O[C@H](CO)[C@@H](O)[C@H](O)[C@H]3N)O[C@@H]2CO)[C@H](N)[C@@H](O)[C@@H]1O [paromomycin]
ability to induce luciferase expression (suppression of translation termination codons) ([1]; 48 hours, FG293 cells): only weak induction

NC[C@H]1O[C@H](O[C@H]2[C@H](O)[C@@H](O[C@H]3O[C@H](CO)[C@@H](O)[C@H](N)[C@H]3O)[C@H](N)C[C@@H]2N)[C@H](N)C[C@@H]1O [tobramycin]
ability to induce luciferase expression (suppression of translation termination codons) ([1]; 48 hours, FG293 cells): only weak induction

gentamicin
ability to induce luciferase expression (suppression of translation termination codons) ([1]; 48 hours, FG293 cells): only weak induction

gentamycin sulfate
effective dosage [5]: 17 mg/kg
